Reference: US20090105238A1, “Compounds and Relative use for the Control of Phytopathogens” (ISAGRO RICERCA S.r.l, priority 2005, published 2009)

What was measured:
Plasmopara viticola = test: Fungicidal (preventive) activity against Peronospora of vines, leaf spray; assay type: in vivo, Plasmopara viticola on vine (cultivar Dolcetto); settings: for Activity 125 ppm / Activity 250 ppm: 7-day preventive activity; for Activity 125 ppm: scale 0 to 100 (healthy plant); for Activity 250 ppm: scale 0 (completely infected plant) to 100 (healthy plant); for Activity (dose ppm): 7-day preventive, scale 0-100
Experimental: Determination of the Fungicidal Activity Against Peronospora of Vines (Plasmopara viticola) […] After remaining 24 hours in a conditioned environment, the plants were sprayed on both sides of the leaves with an aqueous suspension of conidia of Plasmopara viticola (20,000 conidia per cm^3). The plants are kept in a humidity saturated environment at 21° C. for the incubation period of the fungus.

Puccinia recondita = test: Fungicidal (preventive) activity against wheat rust, leaf spray; assay type: in vivo, Puccinia recondita on wheat (cultivar Gemini); settings: 5-day preventive, scale 0-100
Experimental: Determination of the Fungicidal Activity Against Wheat Rust (Puccinia recondita)
(§1) Leaves of wheat plants (cultivar Gemini), grown in vases in a conditioned environment (20±1° C., 70% relative humidity) are treated by spraying both sides of the leaves with compounds 1, 2 and 3, dispersed in a hydroacetone solution at 20% by volume in acetone. […]
(§2) The plants are kept in a humidity saturated environment at a temperature ranging from 18 to 24° C. for the incubation period of the fungus.
At the end of this period (14 days), the fungicidal activity is evaluated according to an evaluation percentage scale from 0 (completely infected plant) to 100 (healthy plant).

Erysiphe graminis = test: Fungicidal (preventive) activity against oidium of wheat, leaf spray; assay type: in vivo, Erysiphe graminis on wheat (cultivar Gemini); settings: 5-day preventive, scale 0-100
Experimental: Determination of the Fungicidal Activity Against Oidium of Wheat (Erysiphe graminis)
as §1, §2
At the end of this period (12 days), the fungicidal activity is evaluated according to an evaluation percentage scale from 0 (completely infected plant) to 100 (healthy plant).

PR1 = test: Gene response (PR1 expression, quantitative PCR) in treated seedlings; assay type: in vivo, arabidopsis thaliana; settings: 800 ppm and 1600 ppm; leaves collected after 24 hours of treatment; compared with blank and glycine betaine (FIG. 1)
Experimental: Determination of the Gene Response of the Compounds Having General Formula (I) and their Mixtures with Other Fungicides
Four-week-old seedlings of arabidopsis thaliana were treated with the compounds having general formula (I) or their mixtures with other fungicides and the leaves were collected after 24 hours of treatment.
The total RNA was extracted from 0.05 g of fresh tissue using the “Genelute mammalian total RNA kit (Sigma)” according to the protocol indications. The cDNA were synthesized using “RevertAid™ M-MuLV Reverse Transcriptase” commercialized by Fermentas Life Sciences according to the following protocol: 2 μg of total RNA were mixed with 0.5 μg of oligo(dT) 18.
Deionized water (nuclease free) was then added to bring the reaction volume to 11 μl, the reaction was subsequently incubated at 70° C. for 5 minutes and then cooled in ice.
The following reagents were then added to the mixture:
4 μl of 5× reaction buffer, 10 mM of dNTP mix, 20 units of Ribonuclease inhibitor.
The reaction was incubated at 37° C. for 5 minutes, 200 units of RevertAid™ M-MuLV Reverse Transcriptase were subsequently added to the mixture and the reaction was incubated at 42° C. for 60 minutes. […]
A quantitative PCR analysis was effected on the cDNA using a mixture of primer/competimers of the ribosomal RNA 18S as internal standard in a ratio of 9:1. […]

Molecule: CCCCCCCCCCCC[N+](C)(C)CC(O)CS(=O)(=O)[O-] (centres unmarked) [Compound 5, Laurylhydroxysultaine]
- Activity 125 ppm (Plasmopara viticola): 85
- Activity 250 ppm (Plasmopara viticola): 99

Molecule: CCCCCCCCCCCC(=O)NCCC[N+](C)(C)CC(=O)[O-] [Compound 7, Laurylamidopropylbetaine]
- Activity 125 ppm (Plasmopara viticola): 95
- Activity 250 ppm (Plasmopara viticola): 100

Molecule: CCCCCCCCCCCC(=O)NCCC[N+](C)(C)C(C(=O)[O-])C(C)C (centres unmarked) [Compound 24, laurylamidopropyl[L]valinebetaine]
- Activity 125 ppm (Plasmopara viticola): 88
- Activity 250 ppm (Plasmopara viticola): 99

Molecule: CCCCCCCCCCCC(=O)NCCC[N+]1(C)CCCC1C(=O)[O-] (centres unmarked) [Compound 25, laurylamidopropyl[L]prolinebetaine]
- Activity 125 ppm (Plasmopara viticola): 95
- Activity 250 ppm (Plasmopara viticola): 100

Molecule: CCCCCCCCCCCC(=O)NCCC[N+](C)(C)C(C)C(=O)[O-] (centres unmarked) [Compound 26, laurylamidopropyl[L]alaninebetaine]
- Activity 125 ppm (Plasmopara viticola): 90
- Activity 250 ppm (Plasmopara viticola): 95

Molecule: CCCCCCCCCCCC(=O)NCCC[N+](C)(C)C(CC(=O)[O-])c1ccccc1 (stereo not drawn) [Compound 28, laurylamidopropyl- β-phenylalaninebetaine]
- Activity 125 ppm (Plasmopara viticola): 90
- Activity 250 ppm (Plasmopara viticola): 99

Molecule: CCCCCCCCCCCC(=O)NCCC[N+](C)(C)C(CC(=O)[O-])c1ccc(Cl)cc1 (stereo not drawn) [Compound 29, laurylamidopropyl-β-4-chlorophenylalaninebetaine]
- Activity 125 ppm (Plasmopara viticola): 90
- Activity 250 ppm (Plasmopara viticola): 95

Molecule: CCCCCCCCCCCC(=O)NCCC[N+](C)(C)CCC(=O)[O-] [Compound 30, laurylamidopropyl- β-alaninebetaine]
- Activity 125 ppm (Plasmopara viticola): 85
- Activity 250 ppm (Plasmopara viticola): 90

Molecule: C[N+](C)(C)CC(=O)[O-] [Glycine betaine, reference compound]
- Activity (dose ppm) (Plasmopara viticola; 30 ppm): 30

Molecule: COC(=O)CC(NC(=O)[C@@H](NC(=O)OC(C)C)C(C)C)c1ccc(Cl)cc1 (some centres unmarked) [IR5885, reference compound]
- Activity (dose ppm) (Puccinia recondita; 500 ppm): 15
- Activity (dose ppm) (Plasmopara viticola; 0.22 ppm): 15
- Activity (dose ppm) (Plasmopara viticola; 0.45 ppm): 41
- Activity (dose ppm) (Erysiphe graminis; 500 ppm): 20

Molecule: FC(F)C(F)(F)OCC(Cn1cncn1)c1ccc(Cl)cc1Cl (centres unmarked) [Tetraconazole, tetraconazole]
- Activity (dose ppm) (Puccinia recondita; 30 ppm): 58
- Activity (dose ppm) (Plasmopara viticola; 30 ppm): 20
- Activity (dose ppm) (Erysiphe graminis; 1.8 ppm): 48

Molecule: Cholanylamidopropylbetaine [Compound 11]
- Activity 125 ppm (Plasmopara viticola): 90
- Activity 250 ppm (Plasmopara viticola): 94

Molecule: Cholesterylcarbonylamidopropylbetaine [Compound 10]
- Activity 125 ppm (Plasmopara viticola): 90
- Activity 250 ppm (Plasmopara viticola): 95

Molecule: Cocamidopropyl- β-4-chlorophenylalaninebetaine [Compound 36]
- Activity 125 ppm (Plasmopara viticola): 85
- Activity 250 ppm (Plasmopara viticola): 94

Molecule: Cocamidopropyl- β-alaninebetaine [Compound 37]
- Activity 125 ppm (Plasmopara viticola): 86
- Activity 250 ppm (Plasmopara viticola): 98

Molecule: Cocamidopropyl-β-phenylalaninebetaine [Compound 35]
- Activity 125 ppm (Plasmopara viticola): 89
- Activity 250 ppm (Plasmopara viticola): 95

Molecule: Cocamidopropyl[L]phenylglycinebetaine [Compound 34]
- Activity 125 ppm (Plasmopara viticola): 88
- Activity 250 ppm (Plasmopara viticola): 97

Molecule: Cocamidopropyl[L]prolinebetaine [Compound 32]
- Activity 125 ppm (Plasmopara viticola): 88
- Activity 250 ppm (Plasmopara viticola): 95

Molecule: Cocamidopropyl[L]valinebetaine [Compound 31]
- Activity 125 ppm (Plasmopara viticola): 85
- Activity 250 ppm (Plasmopara viticola): 98

Molecule: Cocamidopropylbetaine [Compound 8]
- gene response (PR1): exceptional gene response
- Activity (dose ppm) (Puccinia recondita; 125 ppm): 29 (125 ppm)
- Activity 125 ppm (Plasmopara viticola): 98
- Activity 250 ppm (Plasmopara viticola): 100
- Activity (dose ppm) (Plasmopara viticola; 30 ppm): 30
- Activity (dose ppm) (Erysiphe graminis; 500 ppm): 20 (500 ppm)

Molecule: Cocamidopropylhydroxysultaine [Compound 9]
- Activity 125 ppm (Plasmopara viticola): 95
- Activity 250 ppm (Plasmopara viticola): 100

Molecule: cocamidopropyl[L]alaninebetaine [Compound 33]
- Activity 125 ppm (Plasmopara viticola): 85
- Activity 250 ppm (Plasmopara viticola): 96
